Experiments:
[1] = target: Norepinephrine transporter (Rattus norvegicus, UniProt Q9WTR4); format: subcellular, Hippocampus
Glutamate NMDA receptor [2] = assay: Inhibition of N-methyl-D-aspartate (NMDA) Receptor, by the displacement of [3H]MK-801 in rat brain membranes; format: cell membranes
[3] = target: Sodium-dependent noradrenaline transporter (Homo sapiens, UniProt P23975)
[4] = target: T1, Sodium-dependent dopamine transporter (Homo sapiens, UniProt Q01959); assay: Equilibrium dissociation constant (KD) for Competitive binding between [3H]WIN-35428 and the compound at human transporter-hDAT
T1 sequence (Q01959 whole entry): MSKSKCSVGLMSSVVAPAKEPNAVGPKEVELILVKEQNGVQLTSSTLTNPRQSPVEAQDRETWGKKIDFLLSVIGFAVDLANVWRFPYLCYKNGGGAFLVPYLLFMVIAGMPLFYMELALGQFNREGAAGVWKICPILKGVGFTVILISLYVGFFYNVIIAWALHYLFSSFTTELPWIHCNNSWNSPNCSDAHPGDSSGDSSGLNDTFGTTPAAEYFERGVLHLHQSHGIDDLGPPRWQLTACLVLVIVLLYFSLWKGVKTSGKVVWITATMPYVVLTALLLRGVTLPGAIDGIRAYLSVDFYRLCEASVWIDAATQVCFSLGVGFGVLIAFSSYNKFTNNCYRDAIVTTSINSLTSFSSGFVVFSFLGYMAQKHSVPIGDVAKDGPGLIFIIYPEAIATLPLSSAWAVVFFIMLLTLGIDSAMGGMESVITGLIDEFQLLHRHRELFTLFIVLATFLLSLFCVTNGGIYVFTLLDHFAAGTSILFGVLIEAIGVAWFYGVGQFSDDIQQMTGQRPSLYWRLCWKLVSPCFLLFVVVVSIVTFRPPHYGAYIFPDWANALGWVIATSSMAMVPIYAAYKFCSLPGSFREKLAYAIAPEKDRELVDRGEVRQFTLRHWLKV

[5] = target: Sodium-dependent dopamine transporter (Rattus norvegicus, UniProt P23977); assay: Inhibition of [3H]- DA reuptake into rat striatal synaptosomes; format: subcellular, Brain
Sequence of Sodium-dependent dopamine transporter (Rattus norvegicus, UniProt P23977) (P23977 whole entry): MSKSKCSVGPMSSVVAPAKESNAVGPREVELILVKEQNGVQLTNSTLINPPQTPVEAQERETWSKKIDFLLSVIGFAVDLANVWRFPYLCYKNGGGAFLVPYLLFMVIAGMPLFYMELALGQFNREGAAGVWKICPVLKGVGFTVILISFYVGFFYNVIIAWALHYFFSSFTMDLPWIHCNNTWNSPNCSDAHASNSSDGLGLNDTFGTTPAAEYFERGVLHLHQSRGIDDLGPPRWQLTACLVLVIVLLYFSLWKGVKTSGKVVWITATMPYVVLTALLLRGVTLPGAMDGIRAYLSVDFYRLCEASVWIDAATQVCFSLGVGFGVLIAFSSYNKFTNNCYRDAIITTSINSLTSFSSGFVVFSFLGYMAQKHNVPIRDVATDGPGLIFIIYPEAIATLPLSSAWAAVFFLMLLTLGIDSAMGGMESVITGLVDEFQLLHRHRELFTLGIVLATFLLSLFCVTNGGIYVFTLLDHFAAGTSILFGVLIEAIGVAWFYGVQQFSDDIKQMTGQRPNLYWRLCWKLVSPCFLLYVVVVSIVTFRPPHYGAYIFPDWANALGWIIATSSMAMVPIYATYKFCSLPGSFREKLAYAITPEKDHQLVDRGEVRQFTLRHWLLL

Rattus norvegicus = organism: Rattus norvegicus; assay: Compound was evaluated for Dopamine reuptake inhibition in rat striatal synaptosomes; format: functional, Brain
[6] = target: T1, Sodium-dependent dopamine transporter; assay: Equilibrium dissociation constant (KD) for Competitive binding between [3H]WIN-35428 and the compound at human transporter -hDAT
Glutamate NMDA receptor [7] = assay: Compound was evaluated for noncompetitive inhibition of N-methyl-D-aspartate (NMDA) Receptor by the displacement of [3H]MK-801 in rat brain membranes; format: cell membranes

Sequence of Norepinephrine transporter (Q9WTR4 whole entry): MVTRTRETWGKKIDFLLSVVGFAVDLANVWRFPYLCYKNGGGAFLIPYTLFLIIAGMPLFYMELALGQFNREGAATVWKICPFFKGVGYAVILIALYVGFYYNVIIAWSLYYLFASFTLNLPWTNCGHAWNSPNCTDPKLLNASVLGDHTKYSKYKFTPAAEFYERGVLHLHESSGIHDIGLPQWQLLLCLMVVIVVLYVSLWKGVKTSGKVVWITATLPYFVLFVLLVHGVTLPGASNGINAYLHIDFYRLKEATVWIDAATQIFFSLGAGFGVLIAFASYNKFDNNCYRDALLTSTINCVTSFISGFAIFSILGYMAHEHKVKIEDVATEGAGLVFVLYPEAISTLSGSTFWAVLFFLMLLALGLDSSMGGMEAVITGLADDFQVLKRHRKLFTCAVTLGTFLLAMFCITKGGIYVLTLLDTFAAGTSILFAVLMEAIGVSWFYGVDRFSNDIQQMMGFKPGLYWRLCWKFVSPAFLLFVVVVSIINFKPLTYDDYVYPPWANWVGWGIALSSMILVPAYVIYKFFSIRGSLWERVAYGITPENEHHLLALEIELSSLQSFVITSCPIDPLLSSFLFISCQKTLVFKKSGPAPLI
Sequence of Sodium-dependent noradrenaline transporter (P23975 whole entry): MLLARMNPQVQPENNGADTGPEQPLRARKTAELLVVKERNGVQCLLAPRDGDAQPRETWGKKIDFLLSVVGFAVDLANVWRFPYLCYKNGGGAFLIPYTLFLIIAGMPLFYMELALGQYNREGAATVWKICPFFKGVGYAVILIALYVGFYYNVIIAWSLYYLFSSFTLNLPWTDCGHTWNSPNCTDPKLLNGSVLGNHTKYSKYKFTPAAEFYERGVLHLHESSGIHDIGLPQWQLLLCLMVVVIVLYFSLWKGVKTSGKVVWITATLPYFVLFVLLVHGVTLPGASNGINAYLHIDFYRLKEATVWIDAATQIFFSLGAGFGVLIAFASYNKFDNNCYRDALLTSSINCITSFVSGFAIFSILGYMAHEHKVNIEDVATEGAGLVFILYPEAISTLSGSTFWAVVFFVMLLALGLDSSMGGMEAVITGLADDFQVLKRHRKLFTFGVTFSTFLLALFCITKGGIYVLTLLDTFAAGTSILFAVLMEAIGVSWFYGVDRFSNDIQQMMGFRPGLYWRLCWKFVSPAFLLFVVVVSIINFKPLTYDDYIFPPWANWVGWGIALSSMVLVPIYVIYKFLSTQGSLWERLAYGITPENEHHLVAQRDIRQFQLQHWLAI

| Ki [1] | Kd [3] | Ki [5] | Kd [6] | IC50 (Glutamate NMDA receptor [7]) | SMILES | IC50 (Glutamate NMDA receptor [2]) | Kd [4] | Kd (Rattus norvegicus) |
| --- | --- | --- | --- | --- | --- | --- | --- | --- |
|  |  |  |  |  | CN(C)C[C@@H](c1ccc2ccccc2c1)[C@@H](O)c1ccccc1 (racemic) | 143 µM | 0.07 µM |  |
| 8.6 µM | 22.5 µM | 5.31 µM |  |  | Cc1cc(C)c([C@H](O)[C@@H](CN)c2ccccc2)c(C)c1 (racemic) | 63 µM | 0.34 µM |  |
|  |  |  |  |  | NC[C@@H](c1ccc2ccccc2c1)[C@@H](O)c1ccccc1 (racemic) | 65 µM | 0.14 µM |  |
| 0.33 µM | 1.54 µM | 1.46 µM |  |  | COc1ccc([C@H](CN)[C@@H](O)C2CCCCC2)cc1 (racemic) | 84 µM | 4.31 µM |  |
| 5.78 µM | 12.5 µM | 6.6 µM |  |  | NC[C@@H](c1ccccc1)[C@@H](O)c1ccccc1 (racemic) | 5.6 µM | 24 µM |  |
| 8.5 µM | 35.8 µM | 4.88 µM |  |  | Cc1cc(C)c([C@H](O)[C@@H](CN(C)C)c2ccccc2)c(C)c1 (racemic) | > 200 µM | 42 µM |  |
| 0.99 µM | 2.25 µM | 1.55 µM | 12 µM | 47 µM | CN(C)C[C@@H](c1ccccc1)[C@@H](O)c1ccccc1 (racemic) |  |  |  |
| 0.17 µM | 0.155 µM | 48 µM |  |  | CCOc1ccccc1OCC1CNCCO1 (racemic) [VILOXAZINE] |  | 0.155 µM |  |
|  |  | 2.38 µM |  |  | CCc1nn(CCCN2CCN(c3cccc(Cl)c3)CC2)c(=O)n1CCOc1ccccc1 [NEFAZODONE] |  |  |  |

| SMILES | Ki [1] | Kd [3] | Ki [5] | Kd [6] | IC50 (Glutamate NMDA receptor [7]) | IC50 (Glutamate NMDA receptor [2]) | Kd [4] | Kd (Rattus norvegicus) |
| --- | --- | --- | --- | --- | --- | --- | --- | --- |
| COc1ccc([C@H](CN(C)C)[C@@H](O)C2CCCCC2)cc1 (racemic) | 0.22 µM | 1.8 µM | 0.64 µM |  |  | > 200 µM | 3.5 µM |  |
| CN(C)C[C@@H](c1ccccc1)[C@@H](O)C(C)(C)C (racemic) | 0.83 µM | 3.43 µM | 1.2 µM |  |  | 121 µM | 21.4 µM |  |
| CN(C)C[C@@H](c1ccc2ccccc2c1)[C@@H](O)C(C)(C)C (racemic) | 0.01 µM | 0.0299 µM | 0.06 µM |  |  | 21 µM | 0.34 µM |  |
| CC(C)(C)[C@H](O)[C@@H](CN)c1ccc2ccccc2c1 (racemic) |  | 0.055 µM | 0.12 µM |  |  | 3 µM | 27 µM | 0.278 µM |
| CC(C)(C)[C@H](O)[C@@H](CN)c1ccccc1 (racemic) | 3.8 µM | 47.9 µM | 4.57 µM |  |  | 14 µM | 7.26 µM |  |
